These results are taken from patent USRE48077E1, “Methods of treating ototoxicity” (Anida Pharma Inc., priority 2013, dated 2020).

Assay type in all cases: cell-based, mouse
In one data set the test system is iNOS. Briefly: Immunofluorescence staining of stress and inflammatory markers: iNOS. On the procedure:
(§1) The cultures were kept at 33° C. in an incubator with 10% CO2. Detection of stress and inflammatory markers in UB/OC-1 cells was performed by immunofluorescence staining. UB/OC-1 cells were first plated in a 12 well plate. […] After the treatment, the cells were fixed with 4% paraformaldehyde (Sigma, St. Louis, Mo.), followed by washing once with phosphate buffered saline (PBS). Coverslips were then incubated with solution A—5% donkey serum (Jackson Immuno Laboratories, West Grove, Pa.) and 0.5% Triton-X (Sigma, St. Louis, Mo.) in PBS for 30 min at room temperature. Double immunostaining for different markers NOX3, iNOS, TRPV1 or TNF-α (1:300 dilution) in solution A was performed overnight at 4° C. Secondary antibody mix was then added and incubated for 1 h at 37° C. After 3 washes with PBS and two washes with fresh distilled water the coverslips were mounted on glass slides using Vectashield mounting medium containing DAPI (Vector Laboratories, Inc. Burlingame, Calif.) for nuclear staining, before imaging under an LEICA confocal microscope (Buffalo Grove, Ill.).

A further data set has as its system TRPV-1. The data set can be described thus: Immunofluorescence staining of stress and inflammatory markers: TRPV-1. The protocol:
as §1

The test system of another data set is NOX3. Briefly: Immunofluorescence staining of stress and inflammatory markers: NOX3. On the procedure:
as §1

Data set [1] concerns UB/OC-1 cells. Briefly: Cell viability by MTS assay (CellTiter 96 AQueous One Solution Cell Proliferation Assay), with and without cisplatin-induced damage. To be noted: 24 hours. On the procedure: In the examples described herein, UB/OC-1 cells, or immortalized organ of Corti cells derived from the mouse, were utilized to examine the activity of NPD1 in the context of ototoxic damage. […] The cultures were kept at 33° C. in an incubator with 10% CO2. […] In brief, 3,500 cells per well were seeded into a 96-well plate. […] NPD1 treatment of 1-100 nM concentrations was tested in 3 independent experiments. A cell proliferation assay was performed by using Cell-Titer 96® AQueous One Solution Cell Proliferation Assay Kit (Promega, Madison, Wis.), according to the manufacturer's instructions. After 24 hours, 20 μl of CellTiter 96 AQueous One Solution reagent was added to each well in 100 μl of total volume of media. Cells were incubated for 3 to 4 hours, and absorbance was recorded at 490 nm using an ELISA plate reader. The absorbance is directly proportional to the number of living cells and is expressed as a percent relative to vehicle-treated cells.
For orientation: Tetrazolium assays rely on reduction of a dye to a coloured formazan, in cell work by metabolically active cells.

Data set [2] has as its system UB/OC-1 cells. Briefly: Cell survival by FITC-AnnexinV/propidium iodide apoptosis detection, flow cytometry. Conditions: for viability at 0.001 µM / viability at 0.01 µM / viability at 0.1 µM: Mus musculus. On the procedure: (§2) The cultures were kept at 33° C. in an incubator with 10% CO2. Cell survival after NPD1 treatment was also analyzed in UB/OC-1 cells in the presence or absence of damage. Specifically, cell death via apoptosis was determined by using FITC-AnnexinV Apoptosis detection kit (BD Pharmingen, San Diego, Calif., USA) and quantified by flow cytometry. In brief, 3,500 UB/OC-1 cells per well were seeded into a 96-well plate. […] At the end of the treatment time, UB/OC-1 cells were washed once with phosphate buffered saline (PBS) and harvested in a 0.5% trypsin/EDTA solution at 37° C., centrifuged at 220×g for 5 min and then immediately resuspended in the physiological buffer provided in the kit. […] The results were quantified using the CellQuest software (BD Biosciences, San Jose, Calif.). Data are expressed as percent viable (non-apoptotic cells) with the number of cells seeded into each well used as 100%. Three independent experiments were performed.

Test in data set [3]: as above
To be noted: mouse, no cisplatin; for viability at 1 nM: NPD1 1 nM alone; for viability at 10 nM: NPD1 10 nM alone; for viability at 100 nM: NPD1 100 nM alone. On the procedure: as §2

The next data set concerns TNFα. Briefly: Immunofluorescence staining of stress and inflammatory markers: TNFα. On the procedure: as §1
For data set [4], the system named is reactive oxygen species (ROS) in UB/OC-1 cells. The data set can be described thus: ROS generation by CellROX green staining, confocal imaging. On the procedure: The cultures were kept at 33° C. in an incubator with 10% CO2. UB/OC1 cells were cultured on glass coverslips in 12-well culture plates. […] The cells were then washed once with phosphate buffered saline (PBS), and fixed in 4% paraformaldehyde for 15 minutes. The coverslips were then mounted with DAPI containing Vectashield (Vector Labs, Burlingame, Calif.).

Setting [5] is: NPD1 at 1 nM, 10 nM and 100 nM 30 minutes, then cisplatin 2.5 μM 24 hours.
Setting [6] is: NPD1 (1, 10, 100 nM; particularly at 10 nM) 30 minutes, then cisplatin 2.5 μM 24 hours.
[7] abbreviates: average of three experiments, read-out: Cell Viability Avg.
[8] abbreviates: read-out: Set II Cell Viability.
[9] abbreviates: read-out: Set III Cell Viability.
Setting [10] is: cisplatin only 2.5 μM, 24 hours.

Structures are written as SMILES. Where two headings read alike, the source gives them in different places.

One may read the viability as the share of living cells, or the viability signal relative to a control.

For `CC/C=C\C[C@H](O)\C=C/C=C/C=C/[C@H](O)C/C=C\C/C=C\CCC(=O)[O-].[Na+]` [NPD1, Sodium (4Z,7Z,10R,11E,13E,15Z,17S,19Z)-10,17-dihydroxydocosa-4,7,11,13,15,19-hexaenoate], the “iNOS expression (staining)” value in the data set on iNOS (setting [5]) is reported as “significant decrease”. Also, the “TRPV-1 expression (staining)” value in the data set with TRPV-1 (setting [6]) is listed as “decrease”. In addition, the “NOX3 expression (staining)” value with NOX3 (setting [5]) is given as “significant decrease”. Further, the cell viability result was “over 95%” in the data set on UB/OC-1 cells [1] (NPD1 1 nM-100 nM with cisplatin 20 μM, percent relative to vehicle-treated cells) and “over 80%” in the data set on UB/OC-1 cells [1] (NPD1 at all tested concentrations (1 pM-100 nM) with cisplatin 20 μM, percent relative to vehicle-treated cells). Moreover, the viability at 0.001 µM is 87.6% with UB/OC-1 cells [2] (read-out: Cell Viability Avg., NPD1 1 nM, 30 minutes later cisplatin 20 μM for 24 h, average of three experiments); 85% with UB/OC-1 cells [2] (read-out: Set I Cell Viability, NPD1 1 nM, 30 minutes later cisplatin 20 μM for 24 h); 83% in the data set with UB/OC-1 cells [2] (read-out: Set II Cell Viability, NPD1 1 nM, 30 minutes later cisplatin 20 μM for 24 h); 94.9% with UB/OC-1 cells [2] (read-out: Set III Cell Viability, NPD1 1 nM, 30 minutes later cisplatin 20 μM for 24 h). Moreover, the viability at 0.01 µM in the data set with UB/OC-1 cells [2] (read-out: Cell Viability Avg., NPD1 10 nM, 30 minutes later cisplatin 20 μM for 24 h, average of three experiments) is 88.8%; in the data set with UB/OC-1 cells [2] (read-out: Set I Cell Viability, NPD1 10 nM, 30 minutes later cisplatin 20 μM for 24 h), 84%; in the data set with UB/OC-1 cells [2] (read-out: Set II Cell Viability, NPD1 10 nM, 30 minutes later cisplatin 20 μM for 24 h) it was 86%; in the data set on UB/OC-1 cells [2] (read-out: Set III Cell Viability, NPD1 10 nM, 30 minutes later cisplatin 20 μM for 24 h), 96.5%. Moreover, the viability at 0.1 µM with UB/OC-1 cells [2] (read-out: Cell Viability Avg., NPD1 100 nM, 30 minutes later cisplatin 20 μM for 24 h, average of three experiments) was 89.2%; with UB/OC-1 cells [2] (read-out: Set I Cell Viability, NPD1 100 nM, 30 minutes later cisplatin 20 μM for 24 h), 90%; in the data set on UB/OC-1 cells [2] (read-out: Set II Cell Viability, NPD1 100 nM, 30 minutes later cisplatin 20 μM for 24 h) it was 80%; with UB/OC-1 cells [2] (read-out: Set III Cell Viability, NPD1 100 nM, 30 minutes later cisplatin 20 μM for 24 h) it was 97.6%. Also, in the data set with UB/OC-1 cells [2] (NPD1 treatment in cisplatin-induced damaged cells), the cell survival entry was “over 96%”. In addition, the viability at 1 nM in data set [3] (setting [7]) amounted to 96.8%; in data set [3] (read-out: Set I Cell Viability) it was 96%; in data set [3] (setting [8]) it was 96%; in data set [3] (setting [9]), 98.5%. For the same molecule, the viability at 10 nM is 96.9% in data set [3] (setting [7]), 96% in data set [3] (read-out: Set I Cell Viability), 97% in data set [3] (setting [8]) and 97.7% in data set [3] (setting [9]). Further, the viability at 100 nM in data set [3] (setting [7]) came to 96.2%; in data set [3] (read-out: Set I Cell Viability), 91%; in data set [3] (setting [8]) it was 98%; in data set [3] (setting [9]), 99.5%. Also, the “TNFα expression (staining)” value in the data set on TNFα (setting [6]) is “decrease”. The ROS staining entry in data set [4] (NPD1 1 nM and 10 nM pre-treatment 30 minutes, then cisplatin 2.5 μM 30 minutes) is “decreased ROS staining”; in data set [4] (NPD1 alone, no cisplatin), “very little or no ROS staining”.

Turning to `N.N.[Cl][Pt][Cl]` [cisplatin, reference compound], the iNOS staining result in the data set on iNOS (setting [10]) is given as “increased staining”. The TRPV-1 staining result in the data set on TRPV-1 (setting [10]) was “increased staining”. Besides, the NOX3 staining result with NOX3 (setting [10]) is “increased staining”. In the data set on UB/OC-1 cells [1] (cisplatin 20 μM alone), the cell viability result is reported as “reduced cell viability”. Also, in the data set on TNFα (setting [10]), the TNFα staining entry is on record as “increased staining”. Also, the ROS staining entry in data set [4] (cisplatin 2.5 μM alone, 30 minutes) is “ROS staining in the cytoplasm of the cell”.
